Reference: patent US8097612B2 (priority 2006, dated 2012)

How the values were obtained:
F1Fo-ATPase [1] = experiment: Inhibition of the F1Fo-ATPase; type: biochemical; conditions: binds to the OSCP in F1
Excerpt: F1Fo-ATPase inhibitors are invaluable tools for mechanistic studies of the F1Fo-ATPase (see, e.g., James A M, et al., J Biomed Sci 2002; 9:475-87; herein incorporated by reference in its entirety). Because F1Fo-ATPase inhibitors are often cytotoxic, they have been explored as drugs for cancer and other hyperproliferative disorders. Macrolides (e.g., oligomycin and apoptolidin) are non-competitive inhibitors of the F1Fo-ATPase (see, e.g., Salomon A R, et al., PNAS 2000; 97:14766-71; Salomon A R, et al., Chem Biol 2001; 8:71-80; herein incorporated by reference in its entirety). Macrolides bind to Fo which blocks proton flow through the channel resulting in inhibition of the F1Fo-ATPase. Macrolides are potent (e.g., the IC50 for oligomycin=10 nM) and lead to large decreases in [ATP]. As such, macrolides have an unacceptably narrow therapeutic index and are highly toxic (e.g., the LD50 for oligomycin in rodents is two daily doses at 0.5 mg/kg) (see, e.g., Kramar R, et al., Agents & Actions 1984, 15:660-63; herein incorporated by reference in its entirety). Other inhibitors of F1Fo-ATPase include Bz-423, which binds to the OSCP in F1 (as described elsewhere herein). Bz-423 has an Ki˜9 μM.

rodents = conditions: two daily doses; cited from earlier work
F1Fo-ATPase [2] = conditions: macrolide, non-competitive inhibitor binding to Fo; read-out: IC50 for inhibition of the F1Fo-ATPase; cited from earlier work

| Structure (SMILES) | Ki (F1Fo-ATPase [1]) [µM] | LD50 (rodents) [mg/kg] | IC50 (F1Fo-ATPase [2]) [µM] |
| --- | --- | --- | --- |
| CN1C(=O)C(Cc2ccc3ccccc3c2)N=C(c2ccc(O)cc2)c2cc(Cl)ccc21 (stereo not drawn) [Bz-423] | ~9 |  |  |
| CC[C@H]1/C=C/C=C/C[C@@H](C)[C@H](O)[C@@](C)(O)C(=O)[C@@H](C)[C@H](O)[C@@H](C)C(=O)[C@@H](C)[C@H](O)[C@@H](C)/C=C/C(=O)O[C@@H]2[C@H](C)[C@H](CC1)O[C@]1(CC[C@H](C)[C@H](C[C@@H](C)O)O1)[C@H]2C [oligomycin] |  | 0.5 | 0.01 |
